Key:
Type in all cases: cell-based, human
[1] = system: MUC1-C specific CD8+ T-cells; assay: HLA-A3 tetramer analysis of T-cell lines; settings: T-cell line after 6 IVS cycles
Protocol: (§1) Phycoerythrin (PE) labeled HLA-A3-P432-3F10K and HLA-A3-P483-2L3F tetramers were prepared by the NIH Tetramer Core Facility (Atlanta, Ga.), and PE labeled MHC class I human negative tetramer (Kit No T01044) was obtained from Beckman Coulter Inc (Sykesville, Md.). […] The tetramers were used at a 1:100 dilution, and cells were stained for 45 minutes at 4° C. 1×10^5 cells were acquired on an LSRII (BD), and data was analyzed using FlowJo 9.0.1 software (Tree Star Inc, Ashland, Oreg.).
To determine the frequency of MUC1-C specific CD8^+ T-cells in the T-cell lines generated with peptides P432-3F10K and P483-2L3F, HLA-A3-P432-3F10K tetramer and HLA-A3-P483-2L3F tetramer analysis was used. After 6 IVS cycles, 20% and 16% of the T-cells bound to the P432-3F10K and P483-2L3F tetramer, respectively. 0.01% and 0.04% of the cells bound to a negative tetramer.

[2] = system: CD8+ T-cells in PBMCs from carcinoma patients; assay: IFNγ ELISPOT assay, precursor frequency of specific T-cells in patient PBMCs; settings: for Patients with specific IFNγ production upon stimulation with peptide: PBMCs pre and three months postvaccination; for Precursor frequency of specific T-cells: peptide 25 μg/mL
Protocol: Measurement of CD8 immune responses in HLA-A3^+ patients was conducted by enzyme-linked immunosorbent spot assay (ELISPOT) using a modification of the procedure described in Arlen et al., Cancer Immunol. Immunother., 49: 517-529 (2000). The assay was performed using K562-A3 cells as APC. ELISPOT measures the frequency of T cells releasing IFNγ in response to stimulation with a peptide. P432-3F10K, P483-2L3F, no peptide, or an HIV gag peptide (SEQ ID NO: 25; a negative control) were used. Pre- and Post-vaccination PBMCs from each patient were compared. A positive response was scored as a ≥2-fold increase in IFNγ-secreting cells. The spots were analyzed using an ImmunoSpot counter (Cellular Technology Ltd, Shaker Heights, Ohio).
To evaluate the presence of CD8^+ T-cells reactive to the P432-3F10K and P483-2L3F peptides in PBMCs from carcinoma patients enrolled in the clinical vaccine trial, an IFNγ ELISPOT assay was performed. The P432-3F10K and P483-2L3F peptides were used in an ELISPOT assay at a concentration of 25 μg/mL to determine the precursor frequency of specific T-cells. Peptide-pulsed K562-A3 cells were used as APC at an effector:APC ratio of 1:2. HIV peptide and no peptide were used as controls.

[3] = system: MUC1-C specific T-cell lines; assay: Cytokine production by MUC1-C specific T-cell lines with peptide-pulsed autologous B-cells (Multi-array)
Protocol: 2.2×10^6 T-cells and 5.5×10^6 autologous B-cells pulsed with peptide P432-3F10K or P483-2L3F were incubated for 24 h in […] medium per well. The supernatants were analyzed by Multi-array technology (Meso Scale Diagnostics, Gaitersburg, Md.) for detection of cytokines.
To test the ability of the MUC1-C peptides to induce cytokine production, P432-3F10K and P483-2L3F specific T-cell lines (1.1×10^6 T cells/mL) from two patients from the PANVAC ovarian cancer clinical trial described in Example 6 were incubated for 24 hours with autologous B-cells pulsed with P432-3F10K or P483-2L3F for 24 hours. The cytokine levels in supernatant of stimulated and unstimulated cells were evaluated.

[4] = system: CD8+ T cells in PBMCs from cancer patients; assay: Tetramer staining of patient PBMCs after 2 IVS cycles with peptide
Protocol: as §1
PBMCs from three patients from the clinical vaccine trial were stimulated for 2 IVS cycles with the autologous dendritic cells exposed to peptide P432-3F10K or P483-2L3F, and one week after the last stimulation the cells were subjected to FACS analysis after staining with CD8-FITC (20 μL) and either P432-3F10K/P483-2L3F-tetramer-PE (1 μL) or negative tetramer-PC (1 μL) for 45 minutes.
Results in Tables 9 and 10 are expressed as the frequency of tetramer positive cells from all CD8^+ T-cells.

Row | Sequence | T-cells bound to peptide/HLA-A3 tetramer [1] | Patients with specific IFNγ production upon stimulation with peptide [2] | Precursor frequency of specific T-cells ([2]; Patient II, Post) | Precursor frequency of specific T-cells ([2]; Patient II, Pre) | Precursor frequency of specific T-cells ([2]; Patient III, Post) | Precursor frequency of specific T-cells ([2]; Patient III, Pre) | Precursor frequency of specific T-cells ([2]; Patient IV, Post) | Precursor frequency of specific T-cells ([2]; Patient IV, Pre) | Precursor frequency of specific T-cells ([2]; Patient IX, Post) | Precursor frequency of specific T-cells ([2]; Patient IX, Pre) | Precursor frequency of specific T-cells ([2]; Patient V, Post) | Precursor frequency of specific T-cells ([2]; Patient V, Pre) | Precursor frequency of specific T-cells ([2]; Patient VI, Post) | Precursor frequency of specific T-cells ([2]; Patient VI, Pre) | Precursor frequency of specific T-cells ([2]; Patient VII, Post) | Precursor frequency of specific T-cells ([2]; Patient VII, Pre) | Precursor frequency of specific T-cells ([2]; Patient VIII, Post) | Precursor frequency of specific T-cells ([2]; Patient VIII, Pre) | Precursor frequency of specific T-cells ([2]; Patient X, Post) | Precursor frequency of specific T-cells ([2]; Patient X, Pre) | further results
1 | ALFIVYLIAK [Peptide P432-3F10K] | 20% | 5 of 11 | 1/2372 | 1/6316 | 1/5455 | 1/6522 | 1/1322 | 1/2000 | <1/200000 | <1/200000 | <1/200000 | <1/200000 | 1/21429 | 1/4511 | <1/200000 | <1/200000 | <1/200000 | <1/200000 | <1/200000 | <1/200000 | Precursor frequency of specific T-cells ([2]; Patient XI, Post): 1/7229; Precursor frequency of specific T-cells ([2]; Patient XI, Pre): 1/4196; IFNγ ([3]; Patient I, IVS 7): 350 pg/mL; IL-2 ([3]; Patient I, IVS 7): 40 pg/mL; IL-6 ([3]; Patient I, IVS 7): 16 pg/mL; IL-12p70 ([3]; Patient I, IVS 7): 5 pg/mL; TNFα ([3]; Patient I, IVS 7): 180 pg/mL; IFNγ ([3]; Patient II, IVS 8): 50 pg/mL; IL-2 ([3]; Patient II, IVS 8): 3 pg/mL; IL-6 ([3]; Patient II, IVS 8): 80 pg/mL; IL-12p70 ([3]; Patient II, IVS 8): 7 pg/mL; TNFα ([3]; Patient II, IVS 8): 130 pg/mL; Frequency of tetramer positive cells from all CD8+ T-cells ([4]; patient III post-vaccination): 59.9%; Frequency of tetramer positive cells from all CD8+ T-cells ([4]; patient III pre-vaccination): 44.5%; Frequency of tetramer positive cells from all CD8+ T-cells ([4]; patient IV post-vaccination): 23.8%; Frequency of tetramer positive cells from all CD8+ T-cells ([4]; patient IV pre-vaccination): 22.0%; Frequency of tetramer positive cells from all CD8+ T-cells ([4]; patient V post-vaccination): 22.0%; Frequency of tetramer positive cells from all CD8+ T-cells ([4]; patient V pre-vaccination): 31.5%
2 | SLFRSPYEK [Peptide P483-2L3F] | 16% | No patient had a specific reaction | <1/200000 | <1/200000 | <1/200000 | <1/200000 | <1/200000 | <1/200000 | <1/200000 | <1/200000 | <1/200000 | <1/200000 | <1/200000 | <1/200000 | <1/200000 | <1/200000 | <1/200000 | <1/200000 | <1/200000 | <1/200000 | Precursor frequency of specific T-cells ([2]; Patient XI, Post): <1/200000; Precursor frequency of specific T-cells ([2]; Patient XI, Pre): <1/200000; IFNγ ([3]; Patient I, IVS 7): 180 pg/mL; IL-2 ([3]; Patient I, IVS 7): 7 pg/mL; IL-6 ([3]; Patient I, IVS 7): 12 pg/mL; IL-12p70 ([3]; Patient I, IVS 7): 5 pg/mL; TNFα ([3]; Patient I, IVS 7): 46 pg/mL; IFNγ ([3]; Patient II, IVS 8): 2590 pg/mL; IL-2 ([3]; Patient II, IVS 8): 15 pg/mL; IL-6 ([3]; Patient II, IVS 8): 150 pg/mL; IL-12p70 ([3]; Patient II, IVS 8): 9 pg/mL; TNFα ([3]; Patient II, IVS 8): 470 pg/mL; Frequency of tetramer positive cells from all CD8+ T-cells ([4]; patient III post-vaccination): 80.9%; Frequency of tetramer positive cells from all CD8+ T-cells ([4]; patient III pre-vaccination): 64.7%; Frequency of tetramer positive cells from all CD8+ T-cells ([4]; patient IV post-vaccination): 65.7%; Frequency of tetramer positive cells from all CD8+ T-cells ([4]; patient IV pre-vaccination): 45.5%; Frequency of tetramer positive cells from all CD8+ T-cells ([4]; patient V post-vaccination): 43.8%; Frequency of tetramer positive cells from all CD8+ T-cells ([4]; patient V pre-vaccination): 53.5%

Source: patent US10138271B2, “Native and agonist CTL epitopes of the MUC1 tumor antigen” (The United States of America, as represented by the …, priority 2012, dated 2018)
